Assay results published in patent US20150299721A1, “BIOMASS PRODUCTION INCREASING GENE AND TRANSGENIC PLANT USING SAME” (POSTECH ACADEMY-INDUSTRY FOUNDATION, priority 2012, published 2015).

What follows are compounds tested on BAT1 gene-overexpressing plant (assay: Restoring of hypocotyl height of BAT1 gene-overexpressing plant by brassinosteroid in the medium). Settings: brassinosteroid added at 0.3 μM or 3 μM to 0.5x B5 medium, measured after 7 days (FIG. 5A).
Type: in vivo, Arabidopsis thaliana
Experimental: The wild type and the BAT1 gene-overexpressing plant were vertically grown in a greenhouse whose temperature was regulated at about 23° C. under a long-day condition having a 24-hour period of 16-hour light condition/8-hour dark condition in 0.5× B5 media. A hypocotyl of the vertical-grown plant was distinctively shown in the BAT1 gene-overexpressing plant. Various brassinosteroids were treated at various concentrations, and a height of the hypocotyl was measured after 7 days. As the brassinosteroid, brassinolide (BL), castasterone (CS), teasterone (TE), or typhasterol (TY) was added at a concentration of 0.3 μM or 3 μM to the medium.
In the case of `CC(C)[C@H](C)[C@@H](O)[C@H](O)[C@@H](C)[C@H]1CC[C@H]2[C@@H]3CC(=O)[C@H]4C[C@H](O)CC[C@]4(C)[C@H]3CC[C@]12C` [typhasterol], the “length (height) of hypocotyl” value is reported as “significantly increased”.
`CC(C)[C@H](C)[C@@H](O)[C@H](O)[C@@H](C)[C@H]1CC[C@H]2[C@@H]3COC(=O)[C@H]4C[C@H](O)[C@H](O)C[C@]4(C)[C@H]3CC[C@]12C` [brassinolide] was tested, and the “length (height) of hypocotyl” value was “significantly increased”.
`CC(C)[C@H](C)[C@@H](O)[C@H](O)[C@@H](C)[C@H]1CC[C@H]2[C@@H]3CC(=O)[C@H]4C[C@H](O)[C@H](O)C[C@]4(C)[C@H]3CC[C@]12C` [castasterone] was tested, and the “length (height) of hypocotyl” value was “significantly increased”.
